Where two headings read alike, the source gives them in different places. Marks after values point to notes of the source that are not given here. Blank lines part the entries; values can stand above or below the compound they belong to.
How the values were obtained:
[1] = CNS penetration: intravenous cassette pharmacokinetic study, brain and plasma by LC-MS/MS; conditions: mouse; for CNS penetrant (asterisk): in vivo; for CNS penetration: total brain to plasma ratio: t = 2 hr, 0.4mg/kg intravenous
Experimental: To assess penetration of compounds into the mouse central nervous system, intravenous pharmacokinetic studies were undertaken in C57B16/J mice. […] Compounds were then combined into a single dosing solution and administered together via the intravenous route into 24 mice. Total compound dose administered to each mouse was 2mg/kg. Mice were culled at various times post dosing and brain and plasma collected for bioanalysis. In particular, mice were culled and plasma collected for bioanalysis at 8 time points out to 24 hours post dosing. Brains were also collected for bioanalysis at various time points to assess CNS penetration. 2 hour and 4 hour brain collection was carried out in all studies. Additional time points were collected in selected studies.
For bioanalysis, compounds were prepared in DMSO and aliquoted together to ensure a final concentration of 1mg/mL per compound in DMSO. Analytical standards were prepared from the initial 1mg/mL stock solution of compound, with a 12-point standard curve range from 0.5ng/mL to 2000ng/mL, with independent quality control tests from 1ng/mL to 1000ng/mL run to validate the standards. All standards and QC samples were matrix matched to eliminate possible suppression. Plasma samples were prepared with a 1:10 dilution in plasma. […] Dose solutions were diluted in a control matrix to a relative concentration that fell on the standard curve. Cold acetonitrile containing internal standard was added to all samples, standards, dose samples and QC samples; samples were then centrifuged for 30 minutes at 4000rpm. After centrifugation, supernatant was transferred to a new 96-well plate, diluted with an equal volume of water and mixed thoroughly before LC-MS analysis.
Supernatents were analysed by LC-MS/MS. From the analysis data a response ratio was obtained using the formula Response Ratio = Test Peak Area/Internal Standard Peak Area. From the standard curve, the test peak area was converted to concentration of test compound.
To establish CNS penetration, the ratio of the concentration of each compound in the plasma samples to the brain samples was assessed.

P2Y1 receptor = molecular target: T1, P2Y1 receptor (Homo sapiens, UniProt P47900); experiment: Cell based HTRF assay measuring IP1 accumulation; antagonism of the P2Y1 agonist MRS2365; conditions: rounded to nearest whole number
T1 construct: expressed in transfected cells
T1 sequence (P47900 whole entry): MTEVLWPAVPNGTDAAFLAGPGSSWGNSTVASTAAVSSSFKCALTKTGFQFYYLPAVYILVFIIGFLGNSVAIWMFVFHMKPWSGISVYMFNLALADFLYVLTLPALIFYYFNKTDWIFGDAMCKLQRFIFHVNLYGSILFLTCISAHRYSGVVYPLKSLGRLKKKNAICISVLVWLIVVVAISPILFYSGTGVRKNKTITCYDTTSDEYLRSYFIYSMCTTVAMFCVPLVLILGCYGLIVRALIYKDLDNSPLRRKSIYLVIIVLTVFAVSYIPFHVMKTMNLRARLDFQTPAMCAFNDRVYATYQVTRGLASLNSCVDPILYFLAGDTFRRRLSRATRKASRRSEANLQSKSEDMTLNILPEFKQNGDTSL
Experimental: IC50 values were determined using a cell based assay in stably transfected cells overexpressing the P2Y1 receptor. The assay system is a high throughput […] assay measuring accumulation of the intracellular messenger inositol monophosphate (IP1), generated intracellularly following activation of P2Y1.
P2Y1 overexpressing cells were maintained in T175 flasks. The day before the assay, these cells were split and 20µl cell suspension transferred to each well of white 384-well assay plates at a cell density of 0.5x10^6 cells/mL. Plates were pulse centrifuged, then incubated overnight at 37°C / 5% CO2 prior to assay.
On day of assay, medium was removed from cells and replaced with stimulation buffer. […] Positive control antagonist curves with standard compounds were included on each plate. Plates were incubated with antagonists for 1 hour prior to addition of 5nM of the agonist MRS2365, dispensed using a Bravo liquid handler. Following agonist addition, plates were incubated for 60 minutes prior to assay. Both incubations were carried out at 37°C / 5% CO2.
For the assay, IP1 accumulation was quantified using the IPOne kit according to manufacturer's instructions. In short, a standard curve was prepared for IP1 quantification, and cells lysed using kit lysis buffer. Assay reagents were added to the lysates, and incubated for 1 hour at room temperature without spinning or shaking. Plates were analysed on a BMG Pherastar plate reader, and IP1 signal generated in cells interpolated from the standard curve.

[2] = In vivo pharmacodynamic EEG study after oral administration; parameters: species or system Sprague-Dawley rats; conditions: rat, 10mg/kg orally
Source text: Study to assess in vivo pharmacodynamic activity of BPTU (S1) in the CNS of rats following oral administration.
Pre-surgery: The animals were allowed a minimum period of 7 days acclimatisation on arrival in the facility.
Surgery: Male Sprague-Dawley rats were anaesthetised with isoflurane (2-5% in Oxygen at 11/min) throughout the procedure. The scalp, neck and right flank were cleared of hair using clippers and cleaned using diluted Hibitane (50% (v/v) in water). A non-steroidal anti-inflammatory agent was administered (Carprofen 5mg/kg, s.c.) and the animals placed on a homeothermic blanket (37 °C) with the head fixed in a stereotaxic frame. Incisions were made in the scalp and neck, as well as in the right flank. Blunt dissection of the abdominal muscle was then made to gain access to the peritoneal cavity. A radio transmitter (HD-S02, Data Sciences International) was implanted with the body of the transmitter placed in the peritoneal cavity and secured to the muscle wall with non-absorbable sutures through the body of the transmitter. The wires of the transmitter were passed through the muscle wall and then sub-dermally using a trochar (16G needle) to the scalp to act as EEG/EMG electrodes. The scalp was cleared of connective tissue and two bore holes were made in the skull with a trepanning drill (fronto-parietal coordinates: Bregma +2mm anterior, midline +1.0mm lateral and Lambda 0mm, +1.5mm lateral). The positive EEG electrode was attached to the anterior bore hole and the negative EEG electrode to the posterior bore hole. Both electrodes were secured in place using a suitable adhesive agent (Cyanoacrylate gel, RS components). A second set of electrodes were sutured into the nuchal muscle to act as EMG electrodes. All incisions were closed using absorbable suture. The animals were allowed to recover in a warm environment and given 5ml of saline s.c. The animals were kept singly in the cage until next day, then pair housed for the duration of post-surgical recovery (min 7 days). During the recovery period, the rats received 5 days of standard post-operative care with no further experimental procedures until the pre-operative body weight was regained. The animals were maintained on a 12/12hr light dark cycle after the surgery.
Testing: On study days, the animals were placed in recording boxes individually and EEG/EMG as well as locomotor activity were recorded for 0.5 h before and 24 h after each dosing. […]
The subsequent EEG/EMG recordings were automatically scored (see Table below for sleep stage definitions) as wake, non-REM (NREM) sleep, or REM sleep in 10 second epochs using SleepSign (Kissei Comtec, Japan).
Power spectral analysis was performed on EEG data recorded over the first 3 h. […]

CNS penetrant (asterisk) [1]: S4*
IC50 (P2Y1 receptor; read-out: IC50 IP1): 58 nM
SMILES: O=C(Nc1ccc(OC(F)(F)F)cc1)Nc1cccnc1Oc1ccccc1C1(C(F)(F)F)CC1 [S4, 1-(4-(trifluoromethoxy)phenyl)-3-(2-(2-(1-(trifluoromethyl)cyclopropyl)phenoxy)pyridin-3-yl)urea]

CNS penetrant (asterisk) [1]: S9*
IC50 (P2Y1 receptor; read-out: IC50 IP1): 122 nM
SMILES: Cc1c(Oc2ncccc2NC(=O)Nc2ccc(OC(F)(F)F)cc2)cccc1N1CCCCC1 [S9]

The next lines start with the compound.

SMILES: Cc1ccc(NC(=O)Nc2ccc(OC(F)(F)F)cc2)c(Oc2ccccc2C(C)(C)C)n1 [compound 3, 1-(2-(2-(tert-butyl)phenoxy)-6-methylpyridin-3-yl)-3-(4-(trifluoromethoxy)phenyl)urea, reference compound]
CNS penetration: total brain to plasma ratio [1]: BLLQ^d
IC50 (P2Y1 receptor; 5nM MRS2365, read-out: IC50): 36 nM

SMILES: CC1(C)CN(c2ccccc2NC(=O)Nc2ccc(OC(F)(F)F)cc2)c2c(O)ccc(-c3ccc(Cl)cc3)c21 [compound 1, reference compound]
CNS penetration: total brain to plasma ratio [1]: BLLQ^d
IC50 (P2Y1 receptor; 5nM MRS2365, read-out: IC50): 33 nM

SMILES: CC(C)(C)c1ccccc1Oc1ncccc1NC(=O)Nc1ccc(C(F)(F)F)s1 [S8, 1-(2-(2-(tert-butyl)phenoxy)pyridin-3-yl)-3-(5-(trifluoromethyl)thiophen-2-yl)urea]
CNS penetrant (asterisk) [1]: S8*
IC50 (P2Y1 receptor; read-out: IC50 IP1): 121 nM

SMILES: CC(C)(C)c1ccccc1Oc1ncccc1NC(=O)Nc1ccc(OC(F)(F)F)cc1 [BPTU, 1-(2-(2-(tert-butyl)phenoxy)pyridin-3-yl)-3-(4-(trifluoromethoxy)phenyl)urea]
EEG power, delta band ([2]; during non-REM sleep): Significant increases
EEG power, theta band ([2]; during non-REM sleep): Significant increases
EEG power, gamma frequency band ([2]; during wake): Significant increases
changes in the EEG power spectrum ([2]; first three hours post dosing): significant changes

SMILES: CC(C)(C)c1ccccc1Oc1cccc(O)c1NC(=O)Nc1ccc(OC(F)(F)F)cc1 [S11, 1-(2-(2-(tert-butyl)phenoxy)-6-hydroxyphenyl)-3-(4-(trifluoromethoxy)phenyl)urea]
CNS penetrant (asterisk) [1]: S11*
IC50 (P2Y1 receptor; read-out: IC50 IP1): 150 nM

SMILES: Cc1ccc(NC(=O)Nc2ccc(OC(F)(F)F)cc2)c(Oc2ccccc2C(C)(C)C)n1 [RS2, 1-(2-(2-(tert-butyl)phenoxy)-6-methylpyridin-3-yl)-3-(4-(trifluoromethoxy)phenyl)urea, reference compound]
CNS penetration (in words) ([1]; intravenous): no apparent CNS penetration
